In US20140044814A1, “Composition and Methods for Permanent Hair Removal” (priority 2012, published 2014):

Assay: Sea salt added to the turmeric mixture, folliculitis after treatment
Type: in vivo
Text: It is believed that the sea salt help to open or penetrate the cellular wall. […] It is believed that the sea salt should be between about 1-10 parts of the turmeric mixture, with the remaining 90-99 parts being turmeric and milk/clay/etc. A presently preferred range is about 1-2 parts sea salt to about […] turmeric mixture.

For sea salt, which folliculitis after treatment is on record?
The folliculitis after treatment was “appears to help to minimize folliculitis”.
